Results taken from PubChem BioAssay (NCI).
Values joined by “and” are separate entries in the source; they are usually repeats but may differ in a detail not shown here. Identical values can stand only once.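 Where inhibition never reached the appropriate level, the endpoint shown equals the highest concentration tested. Otherwise, values were interpolated linearly from a five-concentration, 48-hour dose response in 96-well plates. GI50: concentration for 50% inhibition of growth. TGI denotes the concentration required for complete inhibition of growth.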

Assays:
Experiment in all cases: inhibition of tumour cell growth, NCI panel, 48 h
[1] = tested on: CCRF-CEM leukemia
[2] = tested on: SNB-75 CNS
[3] = tested on: SR leukemia
[4] = tested on: HCT-15 colon
[5] = tested on: SNB-19 CNS
[6] = tested on: RPMI-8226 leukemia
[7] = tested on: SW-620 colon
[8] = tested on: SF-295 CNS
[9] = tested on: UACC-62 melanoma
[10] = tested on: SF-268 CNS
[11] = tested on: NCI-H460 lung
[12] = tested on: UO-31 renal
[13] = tested on: NCI-H522 lung
[14] = tested on: RXF 393 renal
[15] = tested on: MCF7 breast
[16] = tested on: MDA-MB-231 breast
[17] = tested on: LOX IMVI melanoma
[18] = tested on: A498 renal
[19] = tested on: U251 CNS
[20] = tested on: SK-MEL-5 melanoma
[21] = tested on: EKVX NSCLC
[22] = tested on: T-47D breast
[23] = tested on: BT-549 breast
[24] = tested on: HCT-116 colon
[25] = tested on: DU-145 prostate
[26] = tested on: KM12 colon
[27] = tested on: SN12C renal
[28] = tested on: NCI-H226 lung
[29] = tested on: HCC-2998 colon
[30] = tested on: PC-3 prostate
[31] = tested on: MOLT-4 leukemia
[32] = tested on: TK-10 renal
[33] = tested on: NCI/ADR-RES ovarian
[34] = tested on: ACHN renal
[35] = tested on: OVCAR-8 ovarian
[36] = tested on: NCI-H23 lung
[37] = tested on: M14 melanoma
[38] = tested on: 786-0 renal
[39] = tested on: HT29 colon
[40] = tested on: IGROV1 ovarian
[41] = tested on: MALME-3M melanoma
[42] = tested on: A549 NSCLC
[43] = tested on: COLO 205 colon
[44] = tested on: OVCAR-4 ovarian
[45] = tested on: HS 578T breast
[46] = tested on: HOP-92 NSCLC
[47] = tested on: SF-539 CNS
[48] = tested on: K-562 leukemia
[49] = tested on: CAKI-1 renal
[50] = tested on: OVCAR-5 ovarian
[51] = tested on: MDA-N
[52] = tested on: SK-MEL-2 melanoma
[53] = tested on: HL-60(TB) leukemia
[54] = tested on: SK-OV-3 ovarian
[55] = tested on: SK-MEL-28 melanoma
[56] = tested on: UACC-257 melanoma
[57] = tested on: HOP-62 NSCLC
[58] = tested on: MDA-MB-435
[59] = tested on: OVCAR-3 ovarian

Structure (SMILES): CN(C)CCOC1(Cc2ccc(Cl)cc2Cl)CCC(C(C)(C)C)CC1 (stereo unspecified)
- TGI [1]: 4.69 µM and 5.32 µM
- GI50 [2]: 2.52 µM
- TGI [2]: 3.89 µM and 7.39 µM
- GI50 [3]: 1.87 µM
- TGI [3]: 4.64 µM and 1.47 µM
- GI50 [4]: 1.57 µM
- TGI [4]: 3.44 µM and 3.06 µM
- TGI [5]: 3.44 µM and 3.74 µM
- TGI [6]: 4.92 µM and 5.42 µM
- GI50 [7]: 1.73 µM
- TGI [7]: 3.84 µM and 4.78 µM
- TGI [8]: 3.2 µM and 3.41 µM
- GI50 [9]: 3.7 µM
- TGI [9]: 3.9 µM and 9.66 µM
- GI50 [10]: 2.28 µM
- TGI [10]: 7.89 µM and 6.85 µM
- TGI [11]: 3.18 µM and 2.66 µM
- GI50 [12]: 2.17 µM and 1.45 µM
- TGI [12]: 6.27 µM and 2.83 µM
- TGI [13]: 3.44 µM and 3.85 µM
- GI50 [14]: 1.68 µM
- TGI [14]: 3.11 µM and 3.28 µM
- GI50 [15]: 1.79 µM
- TGI [15]: 3.49 µM and 3.65 µM
- GI50 [16]: 3.39 µM
- TGI [16]: 8.16 µM and 3.34 µM
- TGI [17]: 2.97 µM and 3.06 µM
- GI50 [18]: 2.07 µM
- TGI [18]: 5.18 µM and 3.95 µM
- TGI [19]: 2.9 µM and 3.45 µM
- GI50 [20]: 2.05 µM
- TGI [20]: 3.07 µM and 3.61 µM
- GI50 [21]: 3.04 µM and 4.01 µM
- TGI [21]: 8.25 µM and 9.01 µM
- GI50 [22]: 1.92 µM and 2.09 µM
- TGI [22]: 4.42 µM and 4.24 µM
- TGI [23]: 3.16 µM and 3.25 µM
- TGI [24]: 3.13 µM and 3.45 µM
- GI50 [25]: 1.89 µM and 2.68 µM
- TGI [25]: 5.91 µM and 6.45 µM
- TGI [26]: 3.27 µM and 3.36 µM
- TGI [27]: 3.32 µM
- GI50 [28]: 2.19 µM and 4.67 µM
- TGI [28]: 5.13 µM and 10.7 µM
- TGI [29]: 3.37 µM and 3.23 µM
- TGI [30]: 3.68 µM and 4.1 µM
- TGI [31]: 4.72 µM and 4.23 µM
- GI50 [32]: 2.02 µM
- TGI [32]: 4.99 µM and 2.75 µM
- GI50 [33]: 1.99 µM
- TGI [33]: 4.52 µM and 3.12 µM
- GI50 [34]: 1.99 µM
- TGI [34]: 5.28 µM and 4.05 µM
- TGI [35]: 3.59 µM and 3.74 µM
- TGI [36]: 5.74 µM and 4.15 µM
- TGI [37]: 3.25 µM and 3.11 µM
- TGI [38]: 3.33 µM and 2.98 µM
- TGI [39]: 3.16 µM and 3.13 µM
- GI50 [40]: 2.38 µM
- TGI [40]: 6.33 µM and 3.25 µM
- TGI [41]: 4.41 µM and 3.24 µM
- TGI [42]: 5.85 µM and 4.22 µM
- TGI [43]: 3.28 µM and 3.23 µM
- TGI [44]: 3.87 µM and 3.85 µM
- TGI [45]: 5.2 µM and 5.27 µM
- GI50 [46]: 1.8 µM and 2.12 µM
- TGI [46]: 3.54 µM and 5.92 µM
- TGI [47]: 14.5 µM and 3.46 µM
- TGI [48]: 3.77 µM and 3.94 µM
- GI50 [49]: 5.18 µM
- TGI [49]: 4.35 µM and 10.6 µM
- GI50 [50]: 2.09 µM
- TGI [50]: 5.54 µM and 3.55 µM
- TGI [51]: 3.31 µM
- TGI [52]: 3.89 µM and 3.33 µM
- GI50 [53]: 1.45 µM and 2.08 µM
- TGI [53]: 3.61 µM and 3.92 µM
- GI50 [54]: 4.79 µM
- TGI [54]: 4.22 µM and 11 µM
- TGI [55]: 3.2 µM and 2.83 µM
- GI50 [56]: 1.64 µM
- TGI [56]: 3.75 µM and 3.24 µM
- TGI [57]: 3.06 µM and 3.32 µM
- TGI [58]: 2.89 µM and 3.18 µM
- GI50 [59]: 2.03 µM
- TGI [59]: 3.07 µM and 3.92 µM

Structure (SMILES): COc1cccc2c1cc([N+](=O)[O-])c1c(C(=O)O)cc3c(c12)OCO3
- GI50 [1]: 28.2 µM
- TGI [1]: > 100 µM
- GI50 [2]: 36 µM
- TGI [2]: > 100 µM
- GI50 [3]: 24.9 µM
- TGI [3]: 75.7 µM and 78.9 µM
- GI50 [4]: 29.1 µM
- TGI [4]: > 100 µM and 38.6 µM
- GI50 [5]: 33.4 µM
- TGI [5]: > 100 µM
- GI50 [6]: 37.1 µM
- TGI [6]: > 100 µM
- GI50 [7]: 28.2 µM
- TGI [7]: > 100 µM
- GI50 [8]: 17.4 µM
- TGI [8]: > 100 µM
- TGI [9]: > 100 µM
- GI50 [10]: 29 µM
- TGI [10]: > 95.2 µM
- GI50 [11]: 18.2 µM
- TGI [11]: 63.7 µM and > 100 µM
- GI50 [12]: 26.2 µM
- TGI [12]: > 100 µM
- TGI [13]: > 100 µM
- GI50 [14]: 18 µM
- TGI [14]: 40.6 µM and > 56.9 µM
- GI50 [15]: 30.7 µM
- TGI [15]: > 100 µM
- GI50 [16]: 59.9 µM
- TGI [16]: > 100 µM
- GI50 [17]: 26.2 µM
- TGI [17]: > 100 µM
- GI50 [18]: 16 µM
- TGI [18]: 32.9 µM and 83.4 µM
- GI50 [19]: 22.9 µM
- TGI [19]: > 100 µM
- GI50 [20]: 22.3 µM
- TGI [20]: 72.2 µM and > 100 µM
- GI50 [21]: 26.6 µM
- TGI [21]: 91.7 µM and > 100 µM
- GI50 [22]: 66.3 µM
- TGI [22]: > 100 µM
- TGI [23]: > 100 µM
- TGI [24]: > 80.6 µM
- GI50 [25]: 23 µM
- TGI [25]: > 82.1 µM and 98.7 µM
- GI50 [26]: 24.5 µM
- TGI [26]: > 87.2 µM
- GI50 [27]: 48.7 µM
- TGI [27]: > 100 µM
- GI50 [28]: 20 µM
- TGI [28]: 48.4 µM and > 78.3 µM
- GI50 [29]: 3.91 µM
- TGI [29]: 18.9 µM and 9.62 µM
- GI50 [30]: 27.8 µM
- TGI [30]: > 100 µM
- GI50 [31]: 40.9 µM
- TGI [31]: > 100 µM
- GI50 [32]: 8.86 µM
- TGI [32]: 48.1 µM and > 100 µM
- GI50 [33]: 42.8 µM
- TGI [33]: > 100 µM
- GI50 [34]: 35.2 µM
- TGI [34]: > 100 µM
- TGI [35]: > 100 µM
- GI50 [36]: 29.6 µM
- TGI [36]: > 100 µM
- TGI [37]: > 100 µM
- GI50 [38]: 27.6 µM
- TGI [38]: > 100 µM
- GI50 [39]: 0.352 µM
- TGI [39]: 2.42 µM and 10.4 µM
- GI50 [40]: 34.3 µM
- TGI [40]: > 100 µM
- GI50 [41]: 31.1 µM
- TGI [41]: > 100 µM
- GI50 [42]: 25.8 µM
- TGI [42]: > 100 µM
- GI50 [43]: 1.12 µM
- TGI [43]: 2.8 µM and 2.97 µM
- GI50 [44]: 83.4 µM
- TGI [44]: > 100 µM
- GI50 [45]: 36.3 µM
- TGI [45]: > 100 µM
- GI50 [46]: 23.3 µM
- TGI [46]: 88.3 µM and > 100 µM
- TGI [47]: > 75.8 µM
- GI50 [48]: 46.3 µM
- TGI [48]: > 100 µM
- GI50 [49]: 17.8 µM
- TGI [49]: > 100 µM
- GI50 [50]: 22.3 µM
- TGI [50]: > 87.6 µM
- TGI [51]: > 100 µM
- GI50 [52]: 22.9 µM
- TGI [52]: 52.3 µM and > 100 µM
- GI50 [53]: 35.1 µM
- TGI [53]: > 100 µM and 51.5 µM
- GI50 [54]: 38.4 µM
- TGI [54]: > 100 µM
- GI50 [55]: 46.7 µM
- TGI [55]: > 100 µM
- GI50 [56]: 28.7 µM
- TGI [56]: > 100 µM
- GI50 [57]: 28.4 µM
- TGI [57]: 97.8 µM and > 76.6 µM
- GI50 [58]: 41.5 µM
- TGI [58]: > 100 µM
- GI50 [59]: 26.1 µM
- TGI [59]: 71.2 µM and > 100 µM
